{
  "source": "patent US8007790B2",
  "about": "“Methods for treating polycystic kidney disease (PKD) or other cyst forming diseases” (Stowers Institute for Medical Research, priority 2006, dated 2011)",
  "key": {"IMCD cells": {"tested_on": "IMCD cells", "format": "cell-based", "method": "To confirm that localization of PC2 was not due to cell death, a TUNEL Assay was performed. Cells treated with or without TNF-alpha were fixed with 4% PFA. The TUNEL assay was performed using a fluorescent apoptosis-detection system (R&D systems, Minneapolis, Minn.) according to the manufacturer's instructions. Fixed cells were treated with TACS-nuclease for the positive control."}, "[1]": {"tested_on": "PC2 localization in inner medullary collecting duct (IMCD) cells", "test": "Immunofluorescence of PC2 localization in IMCD cells after TNF-alpha induction", "format": "cell-based", "method": "[…] IMCD (ATCC catalog no. CRL-2123) cells were cultured in Dulbecco's modified Eagle's medium/F12 medium supplemented with 10% (v/v) fetal bovine serum (Invitrogen). Then, these cells were induced with TNF-alpha at a final concentration of 200 ng/ml. Immunofluorescence of the IMD cells was performed before and after 16 hours of TNF-alpha exposure.\nImmunofluorescence was carried out as previously described. Li et al, Polycystin-1 and polycystin-2 regulate the cell cycle through the helix-loop-helix inhibitor Id2. Nat Cell Biol, 7(12):1202-12 (2005). Primary antibodies were used at the following dilutions: FIP2 (1:100), PC1 (1:500), PC2 (1:500), and flag (1:500). Secondary antibodies used included goat-anti-rabbit IgG-fluorescein isothiocyanate (Molecular Probes, Eugene, Oreg.) and goat-anti-mouse IgG-Texas Red (1:500 dilution; Molecular Probes). Images were captured on an inverted microscope (Axiovert 200M, Carl Zeiss, inc.) equipped with a spinning disc confocal head (Yogogawa), Argon-Krypton laser system (Prairie Technologies, Inc.), and ORCA-ER CCD camera (Hamamatsu). Images were acquired using the Metamorph software (Molecular Devices) and 3D image reconstruction was performed using the Volocity (Improvision, Inc.) software.\nThe disruption of PC2 localization by TNF-alpha was further confirmed using immunoprecipitation, western blotting, and a TUNEL Assay. […]"}, "[2]": {"tested_on": "TNF-alpha receptor (TNFR)", "test": "Immunoblot of TNFR level in TNF-alpha treated IMCD cells", "format": "cell-based", "method": "(§1) The disruption of PC2 localization by TNF-alpha was further confirmed using immunoprecipitation, western blotting, and a TUNEL Assay. Immunoprecipitation and Western blotting were performed on whole-cell lysates as previously described. Li et al, Polycystin-1 and polycystin-2 regulate the cell cycle through the helix-loop-helix inhibitor Id2. Nat Cell Biol, 7(12):1202-12 (2005). The antibodies used for Western blotting included rabbit polyclonal anti-FIP2 51, rabbit anti-PC2 polyclonal antibody 96525 50, rabbit anti-PC1 polyclonal antibody 96521, rabbit anti-Rab8 polyclonal antibody and rabbit anti-TNFR-I polyclonal antibody. Secondary antibodies used included: goat-anti-rabbit IgG-fluorescein isothiocyanate (FITC Molecular Probes, Eugene, Oreg.), goat-anti-mouse IgG-Texas Red, (1:500 dilution; Molecular Probes). For western blotting, goat-anti-rabbit IgG-horseradish peroxidase (HRP or goat-anti-mouse IgG-HRP, 1:10,000 dilution; Amersham Pharmacia Biotech) were used as secondary antibodies.\n(§2) Primary cell cultures were prepared as described previously. The cells were propagated in DMEM/F12 supplemented with 5% FBS, 5 μg/ml insulin, 5 μg/ml transferrin and 5 ng/ml sodium selenite (ITS) and 100 IU/ml penicillin G and 0.1 mg/ml streptomycin. […]"}, "FIP2 [3]": {"tested_on": "FIP2", "test": "Immunoblot of FIP2 level in TNF-alpha treated IMCD cells", "format": "cell-based", "method": "as §1, §2"}, "[4]": {"tested_on": "cultured embryonic kidneys (E15.5)", "test": "Mouse embryonic kidney organ culture cyst formation assay", "method": "Embryonic kidneys were dissected in PBS (with calcium and magnesium) plus penicillin-streptomycin-glutamine (GiBCO, Grand Island, N.Y.) from embryos of wild type CD1 mice at E15.5, E16.5 or E17.5 and of C57BL/6 Pkd1+/− or C57BL/6 Pkd2+/− mice or their wild type counterparts at E15.5. The dissected kidneys were cultured at 37° C. in DMEM/F12 containing 2 mM L-glutamine, 10 mM Hepes, 5 μg/ml insulin, 5 μg/ml transferrin, […] selenium, 25 ng/ml prostaglandin E1, 32 pg/ml T3 and 250 IU/ml penicillin-streptomycin. The kidneys were cultured with or without TNF-alpha (Genzyme Diagnostic, Cambridge, Mass.) at different concentrations for 48 hours and then 50 μM 8-Bromo-cyclic AMP (Sigma, St. Louis, Mo.) was added for 5 days. The cultured kidneys were then fixed with 4% paraformaldehyde (PFA) in PBS for 6 hours, washed with PBS twice for 5 minutes each, and transferred to 70% EtOH for short-term storage at room temperature or for more extended storage at 4° C. The fixed kidney samples were subsequently processed for Hematoxylin and Eosin staining following a common histology protocol.\nTo test the effect of TNF-alpha treatment, the culture conditions were modified using E15.5 kidneys and a low concentration of cAMP, such that there was no cyst formation (0/32 kidneys observed) in the absence of TNF-alpha (see top panel FIGS. 2A and 2B). […] (FIG. 2B). […] Thus, in FIG. 2B, treatment with different concentrations of TNF-alpha for 5 days triggered cyst formation in Pkd2+/− cultured kidneys from E15.5 embryos."}, "Pkd2+/- mice [5]": {"tested_on": "Pkd2+/- mice", "test": "Cyst formation in Pkd2+/- mice injected with TNF-alpha", "format": "in vivo", "conditions": "5 μg/mouse/week intraperitoneal, week 4 to week 8.5; control 0 of 10; Fisher's exact test p=0.04", "method": "The in vitro results described above indicate that TNF-alpha may be a strong physiological modifier of FIP2 that promotes the ADPKD disease phenotype at the organismal level. To test this hypothesis in vivo, 4 week old Pkd2+/− mice were directly injected intra-peritoneally with TNF-alpha (5 μg/mouse, 1 injection/wk) for 4 weeks. Pkd2 mutant mice (Pkd2-183) were kindly provided by Stephan Somlo (Yale University). For TNF-alpha (Genzyme Diagnostic, Cambridge, Mass.) treatment experiments, mice were intraperitoneally injected weekly, from week 4 (day 28) to week 8.5 (day 60), with 5 μg of TNF-alpha per mouse per week or phosphate buffered saline (PBS). 9-17 week old Pkd2+/− mice developed cysts at a frequency of 0.21. Accordingly, the natural frequency of cyst formation may be much lower in the 4 week olds."}, "Pkd2+/- mice [6]": {"tested_on": "Pkd2+/- mice", "test": "Cyst formation in Pkd2+/- mice treated with etanercept", "format": "in vivo", "conditions": "25 μg/mouse/week, 10 weeks, n=14; PBS control 25% (n=16); Fisher's exact test p=0.05", "method": "Chronic inhibition of FIP2 expression by a FIP2 inhibitor such as a TNF-alpha inhibitor may alleviate cyst formation. For the TNF-alpha inhibitor etanercept (AMGEN, Thousand Oaks, Calif.), treatment experiments, mice were intraperitoneally injected weekly, from week 8.5 (day 60) to week 18.5 (day 130), with 25 μg of etanercept per mouse per week or phosphate buffered saline (PBS).\nTo this end, 8-week old Pkd2+/− mice were treated with either etanercept […] administered at 25 μg/mouse/week), or phosphate buffered saline (PBS) in the control group. […] This frequency is consistent with that reported previously (21%, n=29). Remarkably, none of etanercept-treated mice developed kidney cysts (n=14)."}, "FIP2 [7]": {"tested_on": "FIP2", "test": "FIP2 siRNA knock-down of FIP2 expression in IMCD cells (Western blot)", "format": "cell-based", "conditions": "transfected IMCD cells, comparison of 4 siRNAs", "method": "(§3) RNAi specific to FIP2 was used to test if the effect of TNF-alpha on PC2 localization was FIP2-dependent. IMCD cells were transfected with siRNA specific for FIP2 to determine if FIP2 caused mislocalization of PC2 upon TNF-alpha induction.\n(§4) The transfection was performed using the DharmaFECT siRNA transfection reagent (Dharmacon, Chicago, Ill.) according to the manufacturer's protocol.\n(§5) In FIG. 7A, 4 different siRNAs against FIP2 were transfected into IMCD cells. In FIG. 7B, a Western blot was performed as described above using anti-FIP2 antibody to determine FIP2 levels in IMCD cells, which were transfected with siRNA#05 (SEQ ID NO: 2) and #08 (SEQ ID NO: 8) and then treated with TNF-alpha for 16 hours. In FIGS. 7C-7F, immunostaining was performed as described above with 96525 anti-PC2 antibody or YCC2 anti-PC2 antibody at a concentration of 1:500 with IMCD cells transfected with siRNA#08 (SEQ ID NO: 8) before and after TNF-alpha induction."}, "[8]": {"tested_on": "PC2 localization in IMCD cells", "test": "Rescue of PC2 localization by FIP2 siRNA in TNF-alpha treated IMCD cells (immunostaining)", "format": "cell-based", "method": "as §3, §4\nIn FIGS. 1C and 1 D, anti-PC2 antibodies (96525 FIG. 1C; YCC2 FIG. 1D) at a concentration of 1:500 were used to determine whether FIP2 siRNA reduces or eliminates FIP2 expression to restore PC2 localization in TNF-alpha treated IMCD cells.\nas §5"}},
  "note": "{P} = phosphate",
  "data": [
    {"substance": "TNF-alpha", "values": [
      {"measurement": "TUNEL staining (cell death)", "setting": "IMCD cells", "value": "negative for TUNEL staining"},
      {"measurement": "cells showing loss of PC2 staining at the plasma membrane and cilia", "setting": "[1]; 200 ng/ml TNF-alpha, 16 hours, anti-PC2 antibody 96525", "value": 100, "unit": "%"},
      {"measurement": "PC2 cilia localization", "setting": "[1]; TNF-alpha 16 hr, YCC2 anti-PC2 antibody, confocal microscopy", "value": "loss of PC2 localization along the primary cilia"},
      {"measurement": "increase of TNFR levels", "setting": "[2]", "value": 35, "unit": "%"},
      {"measurement": "induction of FIP2 level", "setting": "FIP2 [3]", "value": 2, "unit": "fold"},
      {"measurement": "lowest TNF-alpha concentration resulting in cyst formation", "setting": "[4]; Pkd2+/- embryonic kidneys, 5 days", "value": 1.5, "unit": "ng/mL"},
      {"measurement": "cultured kidneys with cyst formation", "setting": "[4]; wild type embryonic kidneys, 6.25-12.5 ng/ml TNF-alpha, five days, low cAMP", "value": "20/20"},
      {"measurement": "lowest TNF-alpha concentration resulting in cyst formation", "setting": "[4]; wild type embryonic kidneys, five days", "value": 6.25, "unit": "ng/mL"},
      {"measurement": "mice that developed unilateral cysts", "setting": "Pkd2+/- mice [5]", "value": "4 of the 10"}
    ]},
    {"substance": "etanercept", "values": [
      {"measurement": "mice that developed kidney cysts", "setting": "Pkd2+/- mice [6]", "value": "none"}
    ]},
    {"substance": "siRNA#08: siRNA against FIP2 (Dharmacon); sense SEQ ID NO: 7, antisense SEQ ID NO: 8 (sense CCAUGAAGCUAAAUAAUCAUU; antisense UGAUUAUUUAGCUUCAUGGUU; sense: RNA, backbone not given here; antisense: RNA, 5' {P}, backbone not given here)", "values": [
      {"measurement": "effect on FIP2 expression", "setting": "FIP2 [7]", "value": "strongest effect"},
      {"measurement": "PC2 localization after TNF-alpha induction", "setting": "[8]; immunostaining with 96525 anti-PC2 antibody", "value": "rescued the TNF-alpha effect on PC2 localization"},
      {"measurement": "PC2 cilia localization after TNF-alpha induction", "setting": "[8]; immunostaining with YCC2 anti-PC2 antibody", "value": "rescued the PC2 cilia localization"}
    ]}
  ]
}
